# Assay results reported in article PMC10305181, “A VEGFB-Based Peptidomimetic Inhibits VEGFR2-Mediated PI3K/Akt/mTOR and PLCγ/ERK Signaling and Elicits Apoptotic, Antiangiogenic, and Antitumor Activities” (Pharmaceuticals, 2023).
# Where two headings read alike, the source gives them in different places. Bridge positions count the residues as written; N and C are the ends. Peptide text beside a SMILES is read from it.
# How the values were obtained:
# [1] = system: HUVECs; test: tube formation assay on Matrigel, HUVECs; format: cell-based, human; settings: 0.40 μM; 12 h; VEGF 20 ng·mL^−1; n = 3; p < 0.001
# Description: Figure 4 Inhibition of EC proliferation and tubulogenesis by C-VGB3 through abrogation of VEGFR2-mediated signaling pathways. (A) MTT assay was performed to investigate C-VGB3 effect on the proliferation of ECs. C-VGB3 (0–0.91 μM) was used with (20 ng·mL^−1) or without VEGF. The control cells were treated with no peptide. After 24 and 48 h, the absorbance was measured at 570 nm utilizing an ELISA plate reader (Space Fax 2100, Awareness, Westport, CT, USA). Error bars indicate ± SEM. n = 3; * p = 0.02, ** p = 0.001, *** and ### p = 0.0001, **** and #### p < 0.0001, ns = not significant; one-way ANOVA. (B) The anti-tubulogenesis effect of C-VGB3 in VEGF (20 ng·mL^−1)-induced HUVECs. Image analysis performed by Wimasis image analysis software is illustrated in the bottom panel. Error bars indicate ±SEM. n = 3; *** 0.0004 ≤ p ≤ 0.0001; unpaired Student’s t-test. To evaluate the mechanism by which C-VGB3 diminished cell proliferation and tube formation, Western blot analysis was performed for HUVECs. […] Error bars indicate ± SEM. n = 3; * p = 0.02, ** p = 0.001, *** p = 0.0001, **** p < 0.0001; one-way ANOVA. […] Error bars indicate ± SEM. n = 3; * p = 0.02, ** p = 0.001, **** p < 0.0001; one-way ANOVA.
# Tube formation of HUVECs was assayed on the Matrigel. After pre-labeling with PKH26 cell tracker (Sigma-Aldrich, St. Louis, MO, USA) HUVECs were plated into 24-well plates pre-coated with Matrigel Basement Membrane Matrix (BD Biosciences, San Jose, CA, USA). C-VGB3 (0.40 μM) was added to the medium, and images were manually captured after 12 h using an Olympus BX-51 fluorescence microscope. Quantitative analyses were performed by Wimasis online software.
# [2] = system: CD31-stained microvessels; test: CD31 immunohistochemistry of 4T1 tumors (microvessel density); format: in vivo, murine; settings: 0.2 mg·kg^−1 i.v.; day 33; n = 3; p = 0.02
# Description: Figure 2 Loop formation is important for the antitumor activity of VGB3. (A) To investigate the efficacy of VGB3 peptides in vivo 13 days after transplantation of a 4T1 murine MCT into female BALB/c mice (the tumor volume ~150 mm^3), the treatment groups received 0.2 mg·kg^−1 (once every 2 days, i.v.) of either the C-VGB3 or L-VGB3 and the control group received PBS for 20 days. Error bars denote ± SEM. n = 6; **** p < 0.0001, ns = not significant; two-way ANOVA. (B) Investigation of C-VGB3 and L-VGB3 effects on mice weight. […] (C,D) Immunohistochemical (IHC) analyses of CD31 and Ki67 for the C-VGB3-, L-VGB3- and PBS-treated tumors. For IHC staining, the sections of tumor tissues were incubated with the primary mouse monoclonal antibodies for CD31 (1:2000 (v/v)) and Ki67 (5 µg·mL^−1). […] Photographs were taken at 40× magnification. Error bars denote ± SEM. n = 3; * 0.02 ≤ p ≤ 0.04, ns = not significant; one-way ANOVA.
# For immunohistochemistry staining, deparaffinized tumor sections were incubated overnight at 4 °C with mouse monoclonal primary anti-Ki67 (5 µg·mL^−1) or anti-CD31 (1:2000 (v/v)). The antigens were detected using 3,3-diaminobenzidine. All images were captured and analyzed with an Olympus BX51 microscope (Olympus America, New York, NY, USA).
# [3] = system: HUVECs; test: MTT assay, HUVECs; format: cell-based, human; settings: VEGF 20 ng·mL^−1, C-VGB3 0–0.91 μM, n = 3, read-out: half-inhibitory concentration (IC50), cell viability
# Description: Figure 4 Inhibition of EC proliferation and tubulogenesis by C-VGB3 through abrogation of VEGFR2-mediated signaling pathways. (A) MTT assay was performed to investigate C-VGB3 effect on the proliferation of ECs. C-VGB3 (0–0.91 μM) was used with (20 ng·mL^−1) or without VEGF. The control cells were treated with no peptide. After 24 and 48 h, the absorbance was measured at 570 nm utilizing an ELISA plate reader (Space Fax 2100, Awareness, Westport, CT, USA). Error bars indicate ± SEM. n = 3; * p = 0.02, ** p = 0.001, *** and ### p = 0.0001, **** and #### p < 0.0001, ns = not significant; one-way ANOVA. (B) The anti-tubulogenesis effect of C-VGB3 in VEGF (20 ng·mL^−1)-induced HUVECs. Image analysis performed by Wimasis image analysis software is illustrated in the bottom panel. Error bars indicate ±SEM. n = 3; *** 0.0004 ≤ p ≤ 0.0001; unpaired Student’s t-test. To evaluate the mechanism by which C-VGB3 diminished cell proliferation and tube formation, Western blot analysis was performed for HUVECs. […]
# (§1) The effects of C-VGB3 and L-VGB3 on the cell survival of HUVE and 4T1 cell lines were investigated using the MTT assay, as previously described, with some modifications. […] After 24 and 48 h of incubation at 37 °C, the absorbance at 570 nm was recorded using an ELISA plate reader (Space Fax 2100, Awareness, Palm City, FL, USA). […]
# [4] = system: 4T1 MCT cells; test: MTT assay, 4T1 MCT cells; format: cell-based, murine; settings: C-VGB3 0–1.81 μM, n = 3, read-out: IC50, proliferation
# Description: Figure 5 Suppression of 4T1 cell proliferation and metastasis by C-VGB3 through blockade of VEGFR2 signaling pathways. (A) MTT assay was performed to investigate C-VGB3 effect on the proliferation of 4T1 tumor cells in vitro. C-VGB3 was used at concentrations 0–1.81 μM in the presence (20 ng·mL^−1) or the absence of VEGF. The control cells were treated with no peptide. After 24 and 48 h, the absorbance was measured at 570 nm utilizing an ELISA plate reader (Space Fax 2100, Awareness, Westport, CT, USA). Error bars represent ± SEM. n = 3; * p = 0.0 2, ** p = 0.001, *** and ### p = 0.0001, **** and #### p < 0.0001, ns = not significant; one-way ANOVA. (B) To evaluate the mechanism by which C-VGB3 diminished cell proliferation and metastasis, Western blot analysis was performed for 4T1 cells. […] Error bars represent ± SEM. n = 3; * p = 0.02, ** p = 0.001, *** p = 0.0001, **** p < 0.0001, ns = not significant; one-way ANOVA.
# as §1
structure (smiles),measurement,setting,value
CC(C)C[C@@H]1NC(=O)CNC(=O)[C@H](CC(=O)O)NC(=O)[C@H](CC(=O)O)NC(=O)[C@@H]2CCCN2C(=O)[C@@H]2CCCN2C(=O)[C@H](CCCNC(=N)N)NC(=O)[C@@H](NC(=O)[C@@H](N)CCC(=O)O)CSSC[C@@H](C(=O)O)NC1=O [C-VGB3] (H-ECRPPDDGLC-OH; disulfide 2-10),decrease in tube branching points,[1],81.46%
same,decrease in tube length,[1],44.37%
same,decrease in tube numbers,[1],58.64%
same,reduction in vessel density (CD31),[2],84%
same,IC50,[3]; 24 h,0.51 µM
same,IC50,[3]; 48 h,0.38 µM
same,IC50,[4]; 24 h,0.56 µM
same,IC50,[4]; 48 h,0.37 µM
